In PubChem BioAssay AID256 (DTP/NCI, 2004):
Toxic doses and inconclusive results are not listed.

Tested on: CD2F1 mice, L1210 leukemia ip, survival T/C
Experiment: NCI In Vivo Anticancer Drug Screen. Data for tumor model L1210 Leukemia (intraperitoneal) in CD2F1 (CDF1) mice
Settings: higher = longer survival
Outline: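 Implant tumor; dose compound or vehicle; measure endpoint in both groups; report treated divided by control.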

[1] = endpoint: mean survival time, dose: 25.0 mg/kg/injection, schedule: Q04DX003 (ip), vehicle: saline with Tween-80
[2] = endpoint: mean survival time, dose: 100.0 mg/kg/injection, schedule: Q04DX003 (ip), vehicle: saline with Tween-80
[3] = endpoint: mean survival time, dose: 200.0 mg/kg/injection, schedule: Q04DX003 (ip), vehicle: saline with Tween-80
[4] = endpoint: mean survival time, dose: 400.0 mg/kg/injection, schedule: Q04DX003 (ip), vehicle: saline with Tween-80
[5] = endpoint: mean survival time, dose: 100.0 mg/kg/injection, schedule: Q01DX001 (ip), vehicle: saline with Tween-80
[6] = endpoint: mean survival time, dose: 6.25 mg/kg/injection, schedule: Q01DX009 (ip), vehicle: saline with Tween-80
[7] = endpoint: mean survival time, dose: 12.5 mg/kg/injection, schedule: Q01DX009 (ip), vehicle: saline with Tween-80
[8] = endpoint: mean survival time, dose: 25.0 mg/kg/injection, schedule: Q01DX009 (ip), vehicle: saline with Tween-80
[9] = endpoint: mean survival time, dose: 100.0 mg/kg/injection, schedule: Q01DX009 (ip), vehicle: saline with Tween-80
[10] = endpoint: mean survival time, dose: 200.0 mg/kg/injection, schedule: Q01DX009 (ip), vehicle: saline with Tween-80
[11] = endpoint: mean survival time, dose: 400.0 mg/kg/injection, schedule: Q01DX009 (ip), vehicle: saline with Tween-80
[12] = endpoint: mean survival time, dose: 100.0 mg/kg/injection, schedule: Q01DX009 (ip), vehicle: saline
[13] = endpoint: mean survival time, dose: 200.0 mg/kg/injection, schedule: Q01DX009 (ip), vehicle: saline
[14] = endpoint: mean survival time, dose: 50.0 mg/kg/injection, schedule: Q01DX009 (ip), vehicle: saline with Tween-80
[15] = endpoint: mean survival time, dose: 100.0 mg/kg/injection, schedule: Q04DX003 (ip), vehicle: saline
[16] = endpoint: mean survival time, dose: 200.0 mg/kg/injection, schedule: Q04DX002 (ip), vehicle: saline with Tween-80
[17] = endpoint: mean survival time, dose: 400.0 mg/kg/injection, schedule: Q04DX002 (ip), vehicle: saline with Tween-80
[18] = endpoint: mean survival time, dose: 100.0 mg/kg/injection, schedule: Q04DX002 (ip), vehicle: saline with Tween-80

Compound: [Cl][Pt+2][Cl].[NH-]c1ccc(S(=O)(=O)Nc2ccccn2)cc1.[NH-]c1ccc(S(=O)(=O)Nc2ccccn2)cc1
- T/C [1]: 97 % of control
- T/C (endpoint: mean survival time, dose: 50.0 mg/kg/injection, schedule: Q04DX003 (ip), vehicle: saline with Tween-80): 97 % of control
- T/C [2]: 96 % of control
- T/C [3]: 102 % of control
- T/C [4]: 107 % of control

Compound: CCC1C(C)CNC1C (configuration not stated)
- T/C [5]: 100 % of control

Compound: CCCCCCCCNC(C)=O
- T/C [6]: 93 % of control
- T/C [7]: 90 % of control
- T/C [8]: 94 % of control

Compound: CCOC(=O)C(=O)Cc1cc(=O)cc(C)o1
- T/C [9]: 95 % of control
- T/C [10]: 92 % of control
- T/C [11]: 93 % of control

Compound: CCCC(O)C(C)[N+](=O)[O-] (configuration not stated)
- T/C [12]: 96 % of control
- T/C [13]: 106 % of control
- T/C (endpoint: mean survival time, dose: 400.0 mg/kg/injection, schedule: Q01DX009 (ip), vehicle: saline): 96 % of control

Compound: CC1CCC2N(C1)CC1C(C(O)C(O)C3(O)C1CC14OC5(O)C(O)CCC1(C)C5CC(O)C34)C2(C)O (configuration not stated)
- T/C [14]: 105 % of control
- T/C [9]: 116 % of control
- T/C [10]: 105 % of control

Compound: NCCc1ccncc1
- T/C (endpoint: mean survival time, dose: 100.0 mg/kg/injection, schedule: Q04DX002 (ip), vehicle: saline): 92 % of control
- T/C (endpoint: mean survival time, dose: 200.0 mg/kg/injection, schedule: Q04DX002 (ip), vehicle: saline): 92 % of control
- T/C (endpoint: mean survival time, dose: 400.0 mg/kg/injection, schedule: Q04DX002 (ip), vehicle: saline): 111 % of control

Compound: CC(C)(O)c1cccc(F)c1
- T/C [14]: 102 % of control
- T/C [9]: 98 % of control
- T/C [10]: 102 % of control
- T/C [11]: 102 % of control

Compound: O=S(=O)(Nc1ccc2ccccc2c1)c1ccccc1
- T/C [9]: 98 % of control
- T/C [15]: 104 % of control
- T/C [10]: 98 % of control
- T/C (endpoint: mean survival time, dose: 200.0 mg/kg/injection, schedule: Q04DX003 (ip), vehicle: saline): 101 % of control
- T/C [11]: 98 % of control
- T/C (endpoint: mean survival time, dose: 400.0 mg/kg/injection, schedule: Q04DX003 (ip), vehicle: saline): 96 % of control

Compound: CC1(C)OC2C(/C=C3/CC(=O)NC3=O)OC(n3ccc(=O)[nH]c3=O)C2O1 (configuration not stated)
- T/C (endpoint: mean survival time, dose: 12.5 mg/kg/injection, schedule: Q01DX005 (ip), vehicle: distilled water + Tween-80): 100 % of control
- T/C (endpoint: mean survival time, dose: 25.0 mg/kg/injection, schedule: Q01DX005 (ip), vehicle: distilled water + Tween-80): 100 % of control
- T/C (endpoint: mean survival time, dose: 50.0 mg/kg/injection, schedule: Q01DX005 (ip), vehicle: distilled water + Tween-80): 103 % of control
- T/C (endpoint: mean survival time, dose: 100.0 mg/kg/injection, schedule: Q01DX005 (ip), vehicle: distilled water + Tween-80): 100 % of control
- T/C (endpoint: mean survival time, dose: 200.0 mg/kg/injection, schedule: Q01DX005 (ip), vehicle: distilled water + Tween-80): 103 % of control

Compound: O=C(O)C1C2CCC1C(O)C2 (configuration not stated)
- T/C [9]: 94 % of control
- T/C [10]: 94 % of control
- T/C [11]: 88 % of control

Compound: Cn1/c2cc/c1=C(\c1ccc(S(=O)(=O)O)cc1)c1ccc([n-]1)/C(c1ccc(S(=O)(=O)O)cc1)=c1/cc/c([nH]1)=C(\c1ccc(S(=O)(=O)O)cc1)c1ccc([n-]1)/C=2c1ccc(S(=O)(=O)O)cc1.O.O=S(=O)(O)C(F)(F)F.[Cu+2]
- T/C (endpoint: median survival time, dose: 6.25 mg/kg/injection, schedule: Q01DX009 (ip), vehicle: saline): 101 % of control
- T/C (endpoint: median survival time, dose: 12.5 mg/kg/injection, schedule: Q01DX009 (ip), vehicle: saline): 104 % of control
- T/C (endpoint: median survival time, dose: 25.0 mg/kg/injection, schedule: Q01DX009 (ip), vehicle: saline): 103 % of control
- T/C (endpoint: median survival time, dose: 50.0 mg/kg/injection, schedule: Q01DX009 (ip), vehicle: saline): 112 % of control
- T/C (endpoint: median survival time, dose: 100.0 mg/kg/injection, schedule: Q01DX009 (ip), vehicle: saline): 103 % of control

Compound: CC(CCC(=O)O)(c1ccc(O)cc1)c1ccc(O)cc1
- T/C (endpoint: mean survival time, dose: 100.0 mg/kg/injection, schedule: Q01DX009 (ip), vehicle: other): 91 % of control
- T/C (endpoint: mean survival time, dose: 200.0 mg/kg/injection, schedule: Q01DX009 (ip), vehicle: other): 101 % of control
- T/C (endpoint: mean survival time, dose: 400.0 mg/kg/injection, schedule: Q01DX009 (ip), vehicle: other): 97 % of control

Compound: N#CCCN=C1C=CC(=C(c2ccc(NCCC#N)cc2)c2ccccc2Cl)C=C1
- T/C [16]: 93 % of control
- T/C [17]: 103 % of control

Compound: Cc1cscc(C)c1=S
- T/C (endpoint: mean survival time, dose: 100.0 mg/kg/injection, schedule: Q04DX003 (ip), vehicle: saline sonified): 98 % of control
- T/C (endpoint: mean survival time, dose: 200.0 mg/kg/injection, schedule: Q04DX003 (ip), vehicle: saline sonified): 98 % of control
- T/C (endpoint: mean survival time, dose: 400.0 mg/kg/injection, schedule: Q04DX003 (ip), vehicle: saline sonified): 100 % of control

Compound: O=C(NCCCCOc1ccc([N+](=O)[O-])cc1Cl)NC1CCCCC1
- T/C [2]: 102 % of control
- T/C [3]: 94 % of control
- T/C [4]: 91 % of control

Compound: Cc1cc(=O)c(C(=O)NC/C(C#N)=C\c2ccccc2)c(C)[nH]1
- T/C [18]: 93 % of control
- T/C [17]: 100 % of control

Compound: CCC1CN2CCc3cc(OC)c(OC)cc3C2CC1CC1c2cc(OC)c(OC)cc2CCN1C(=O)C(Cc1c[nH]c2ccccc12)NC(=O)OC(C)(C)C (configuration not stated)
- T/C (endpoint: mean survival time, dose: 8.0 mg/kg/injection, schedule: Q04DX003 (ip), vehicle: saline with Tween-80): 93 % of control
- T/C (endpoint: mean survival time, dose: 16.0 mg/kg/injection, schedule: Q04DX003 (ip), vehicle: saline with Tween-80): 95 % of control
- T/C (endpoint: mean survival time, dose: 32.0 mg/kg/injection, schedule: Q04DX003 (ip), vehicle: saline with Tween-80): 98 % of control
- T/C (endpoint: mean survival time, dose: 64.0 mg/kg/injection, schedule: Q04DX003 (ip), vehicle: saline with Tween-80): 89 % of control
- T/C (endpoint: mean survival time, dose: 128.0 mg/kg/injection, schedule: Q04DX003 (ip), vehicle: saline with Tween-80): 87 % of control

Compound: O=C=Nc1cccc2c(N=C=O)cccc12
- T/C [7]: 91 % of control
- T/C [8]: 102 % of control
- T/C [14]: 91 % of control

Compound: Cc1cc(C)c(NC(=O)/C=C/c2ccccc2)c(C)c1
- T/C [18]: 96 % of control
- T/C [16]: 89 % of control
- T/C [17]: 96 % of control

Compound: O=C(Nc1cccc(O)c1)C1CC1
- T/C [5]: 105 % of control
- T/C (endpoint: mean survival time, dose: 200.0 mg/kg/injection, schedule: Q01DX001 (ip), vehicle: saline with Tween-80): 94 % of control

Compound: O=C(Nc1ccc(NC(=O)c2ccccc2)c2ccccc12)c1ccccc1
- T/C [2]: 92 % of control
- T/C [4]: 92 % of control

Compound: CN(CC(=O)O)C(=N)N
- T/C (endpoint: mean survival time, dose: 250.0 mg/kg/injection, schedule: Q01DX Z (ip), vehicle: saline): 96 % of control
- T/C (endpoint: mean survival time, dose: 500.0 mg/kg/injection, schedule: Q01DX Z (ip), vehicle: saline): 96 % of control
- T/C (endpoint: mean survival time, dose: 1000.0 mg/kg/injection, schedule: Q01DX Z (ip), vehicle: saline): 100 % of control

Compound: CCC(=O)c1ccc2c(c1)N(C(C)CN(C)C)c1ccccc1S2 (configuration not stated)
- T/C (endpoint: mean survival time, dose: 25.0 mg/kg/injection, schedule: Q04DX003 (ip), vehicle: saline): 97 % of control
- T/C (endpoint: mean survival time, dose: 50.0 mg/kg/injection, schedule: Q04DX003 (ip), vehicle: saline): 97 % of control
- T/C [15]: 101 % of control

Compound: N#C/C(=C\C1CCCCC1Cl)C1CCC([N+](=O)[O-])CC1 (configuration not stated)
- T/C [18]: 91 % of control
- T/C [17]: 87 % of control

Compound: O=C(O)C(=O)c1ccccc1
- T/C (endpoint: mean survival time, dose: 50.0 mg/kg/injection, schedule: Q01DX009 (ip), vehicle: saline): 98 % of control
- T/C [12]: 104 % of control
- T/C [13]: 107 % of control

Compound: Cc1ccccc1C(C)NC1=NCCO1 (configuration not stated)
- T/C [6]: 90 % of control
- T/C (endpoint: mean survival time, dose: 6.25 mg/kg/injection, schedule: Q04DX003 (ip), vehicle: saline with Tween-80): 96 % of control
- T/C [7]: 96 % of control
- T/C (endpoint: mean survival time, dose: 12.5 mg/kg/injection, schedule: Q04DX003 (ip), vehicle: saline with Tween-80): 95 % of control
- T/C [8]: 97 % of control
- T/C [1]: 93 % of control

Compound: Nc1ccc(Cl)c([N+](=O)[O-])c1
- T/C (endpoint: mean survival time, dose: 100.0 mg/kg/injection, schedule: Q04DX003 (ip), vehicle: Klucel (hydroxypropylcellulose) (HPC)): 94 % of control
- T/C (endpoint: mean survival time, dose: 200.0 mg/kg/injection, schedule: Q04DX003 (ip), vehicle: Klucel (hydroxypropylcellulose) (HPC)): 91 % of control
- T/C (endpoint: mean survival time, dose: 400.0 mg/kg/injection, schedule: Q04DX003 (ip), vehicle: Klucel (hydroxypropylcellulose) (HPC)): 89 % of control

Compound: CCOC(=O)NOP(=O)(N1CC1)N1CC1
- T/C (endpoint: mean survival time, dose: 12.5 mg/kg/injection, schedule: Q04DX002 (ip), vehicle: saline with Tween-80): 116 % of control
- T/C (endpoint: mean survival time, dose: 50.0 mg/kg/injection, schedule: Q04DX002 (ip), vehicle: saline with Tween-80): 166 % of control
- T/C [18]: 186 % of control

Compound: C1CCC2CN(CCCN3CCOCC3)CC2C1 (configuration not stated)
- T/C [12]: 102 % of control
- T/C [13]: 96 % of control
